# Results reported in PMC3702004, “Comparison of Intake and Systemic Relative Effect Potencies of Dioxin-like Compounds in Female Mice after a Single Oral Dose” (Environmental Health Perspectives, 2013).
# What was measured:
# [1] = Body and organ weight, hepatic lipid content; format: in vivo, female C57BL/6 mice; conditions: day 3; for % lipid / g liver: pooled liver samples
# Procedure: Animals. Eight-week-old female C57BL/6 mice (Harlan laboratories, Venray, the Netherlands) were randomly assigned to treatment groups (six animals per group) and allowed to acclimate for 1.5 weeks. The animals were housed in groups in standard cages and conditions (23 ± 2°C, 50–60% relative humidity, 12-hr dark/light cycle) with free access to food and water. Mice received a single dose of test compound by oral gavage at a dosing volume of 10 mL/kg body weight (BW). Mice treated with corn oil vehicle (10 mL/kg BW) served as controls. For each congener, five different doses were administered, ranging from 0.5–100 μg/kg BW (TCDD) to 5,000–500,000 µg/kg BW (PCB-153). Detailed information on doses is provided in Supplemental Material, Table S1 (http://dx.doi.org/10.1289/ehp.1206336). On day 3 after dosing, animals were euthanized by CO2/O2 asphyxiation, and blood was immediately collected from the abdominal aorta. The liver, thymus, spleen, and adipose tissue were removed, weighed (liver, thymus, and spleen), snap frozen, and stored at –80°C. All animal treatments were performed with permission of the Animal Ethical Committee (DEC Utrecht) and performed according to the [Law on Animal Experiments (1977)]. Animals were treated humanely and with regard for alleviation of suffering.
# Compound analysis. Adipose and liver tissues samples were homogenized in Na2SO4, followed by extraction and clean-up in one step, and then eluted with 200 mL 1:1 hexane:dichloromethane on an open column packed with 40% wt/wt H2SO4-impregnated silica and KOH-silica. Blood plasma samples were extracted on an open column using Chem-Elut (Agilent Technologies, Santa Clara, CA, USA) and then NaCl eluted with 75 mL 3:2 hexane:2-propanol. Clean-up was performed using a miniaturized silica column (as described above), and samples were eluted using 30 mL hexane. Because the samples typically contained high levels of the analytes, only a small fraction was evaporated and analyzed. Prior to evaporation, we spiked a fraction of the samples with ^13C-labeled standards. We checked potential loss of analytes during extraction and clean-up by reextracting the samples using the identical protocol used for the samples. […] Tetradecane was added prior to evaporation. Sample analysis followed the U.S. Environmental Protection Agency Method 1613 ([U.S. Environmental Protection Agency 1994]) using single ion monitoring mode on an Agilent 6809N gas chromatograph (Agilent Technologies) coupled with a Micromass Ultima Autospec Ultra high-resolution mass spectrometer (HRMS; Waters Corp., Milford, MA, USA). Compounds were separated on a 60 m × 0.25 mm DB5-MS column ([…]; J&W Scientific, Folsom, CA, USA). The HRMS was operated with electron impact ionization with electron energy of 35 eV and an ion source temperature of 250°C. To reduce the number of analyses, samples were pooled before clean-up. […] This method was used because full congener–specific separation could be achieved on the high-resolution GC–HRMS. For lipid determination, samples were evaporated to dryness after the extraction step, and the amount of lipids was determined gravimetrically. Concentrations were calculated based on lipid weight and wet weight. The analysis of samples for the PCB-118 5,000 μg/kg BW dose failed during the procedure; thus analysis for this group could not be completed.
# Statistical analysis. Statistical significant differences of the means and variances were determined using one-way analysis of variance (ANOVA) followed by Tukey-Kramer multiple comparisons. Differences were considered statistically significant at p < 0.05. Statistical calculations were performed using GraphPad 6.01 (GraphPad Software Inc.).
# [2] = toxic equivalency factor relative to TCDD; ref Van den Berg et al. 2006; cited from earlier work
smiles,measurement,setting,value
"Clc1ccc(-c2cc(Cl)c(Cl)c(Cl)c2)cc1Cl [PCB-126, 3,3´,4,4´,5-pentachlorobiphenyl]",Body weight,[1]; oral dose 5 µg/kg bw,19.3 ± 0.9 gram
same,Liver weight,[1]; oral dose 5 µg/kg bw,4.97 ± 0.38 % of bw
same,Spleen weight,[1]; oral dose 5 µg/kg bw,0.33 ± 0.04 % of bw
same,Thymus weight,[1]; oral dose 5 µg/kg bw,0.27 ± 0.06 % of bw
same,% lipid / g liver,[1]; oral dose 5 µg/kg bw,3.4%
same,Body weight,[1]; oral dose 25 µg/kg bw,18.9 ± 1.4 gram
same,Liver weight,[1]; oral dose 25 µg/kg bw,4.96 ± 0.35 % of bw
same,Spleen weight,[1]; oral dose 25 µg/kg bw,0.33 ± 0.06 % of bw
same,Thymus weight,[1]; oral dose 25 µg/kg bw,0.29 ± 0.05 % of bw
same,% lipid / g liver,[1]; oral dose 25 µg/kg bw,3.7%
same,Body weight,[1]; oral dose 100 µg/kg bw,19.5 ± 0.7 gram
same,Liver weight,[1]; oral dose 100 µg/kg bw,5.07 ± 0.19 % of bw
same,Spleen weight,[1]; oral dose 100 µg/kg bw,0.31 ± 0.04 % of bw
same,Thymus weight,[1]; oral dose 100 µg/kg bw,0.25 ± 0.06 % of bw
same,% lipid / g liver,[1]; oral dose 100 µg/kg bw,4.4%
same,Body weight,[1]; oral dose 250 µg/kg bw,19.3 ± 1.3 gram
same,Liver weight,[1]; oral dose 250 µg/kg bw,5.43 ± 0.19 % of bw
same,Spleen weight,[1]; oral dose 250 µg/kg bw,0.32 ± 0.02 % of bw
same,Thymus weight,[1]; oral dose 250 µg/kg bw,0.26 ± 0.04 % of bw
same,Body weight,[1]; oral dose 1000 µg/kg bw,18.8 ± 0.9 gram
same,Liver weight,[1]; oral dose 1000 µg/kg bw,5.64 ± 0.20 % of bw
same,Spleen weight,[1]; oral dose 1000 µg/kg bw,0.39 ± 0.16 % of bw
same,Thymus weight,[1]; oral dose 1000 µg/kg bw,0.27 ± 0.04 % of bw
same,Dose with significant increase in liver weight vs vehicle controls,[1]; single oral dose,"≥ 1,000 µg/kg BW"
same,WHO-TEF,[2],0.1
"Clc1ccc(-c2cc(Cl)c(Cl)c(Cl)c2Cl)cc1Cl [PCB-156, 2,3,3´,4,4´,5-hexachlorobiphenyl]",Body weight,[1]; oral dose 5000 µg/kg bw,17.7 ± 0.7 gram
same,Liver weight,[1]; oral dose 5000 µg/kg bw,4.71 ± 0.43 % of bw
same,Spleen weight,[1]; oral dose 5000 µg/kg bw,0.27 ± 0.03 % of bw
same,Thymus weight,[1]; oral dose 5000 µg/kg bw,0.21 ± 0.05 % of bw
same,% lipid / g liver,[1]; oral dose 5000 µg/kg bw,3.0%
same,Body weight,[1]; oral dose 15000 µg/kg bw,18.7 ± 1.3 gram
same,Liver weight,[1]; oral dose 15000 µg/kg bw,5.14 ± 0.41 % of bw
same,Spleen weight,[1]; oral dose 15000 µg/kg bw,0.30 ± 0.03 % of bw
same,Thymus weight,[1]; oral dose 15000 µg/kg bw,0.23 ± 0.04 % of bw
same,% lipid / g liver,[1]; oral dose 15000 µg/kg bw,3.3%
same,Body weight,[1]; oral dose 50000 µg/kg bw,18.0 ± 0.9 gram
same,Liver weight,[1]; oral dose 50000 µg/kg bw,5.96 ± 0.62 % of bw
same,Spleen weight,[1]; oral dose 50000 µg/kg bw,0.31 ± 0.04 % of bw
same,Thymus weight,[1]; oral dose 50000 µg/kg bw,0.25 ± 0.02 % of bw
same,% lipid / g liver,[1]; oral dose 50000 µg/kg bw,5.7%
same,Body weight,[1]; oral dose 150000 µg/kg bw,19.2 ± 1.1 gram
same,Liver weight,[1]; oral dose 150000 µg/kg bw,6.79 ± 0.51 % of bw
same,Spleen weight,[1]; oral dose 150000 µg/kg bw,0.29 ± 0.02 % of bw
same,Thymus weight,[1]; oral dose 150000 µg/kg bw,0.21 ± 0.04 % of bw
same,% lipid / g liver,[1]; oral dose 150000 µg/kg bw,6.8%
same,Body weight,[1]; oral dose 500000 µg/kg bw,18.7 ± 0.6 gram
same,Liver weight,[1]; oral dose 500000 µg/kg bw,8.10 ± 0.17 % of bw
same,Spleen weight,[1]; oral dose 500000 µg/kg bw,0.33 ± 0.03 % of bw
same,Thymus weight,[1]; oral dose 500000 µg/kg bw,0.18 ± 0.05 % of bw
same,Dose with significant increase in liver weight vs vehicle controls,[1]; single oral dose,"≥ 50,000 µg/kg BW"
same,WHO-TEF,[2],0.00003
"Clc1cc2c(cc1Cl)Oc1c(cc(Cl)c(Cl)c1Cl)O2 [PeCDD, 1,2,3,7,8-pentachlorodibenzodioxin]",Body weight,[1]; oral dose 0.5 µg/kg bw,18.6 ± 1.3 gram
same,Liver weight,[1]; oral dose 0.5 µg/kg bw,4.56 ± 0.34 % of bw
same,Spleen weight,[1]; oral dose 0.5 µg/kg bw,0.30 ± 0.02 % of bw
same,Thymus weight,[1]; oral dose 0.5 µg/kg bw,0.21 ± 0.03 % of bw
same,% lipid / g liver,[1]; oral dose 0.5 µg/kg bw,4.7%
same,Body weight,[1]; oral dose 2.5 µg/kg bw,19.4 ± 1.1 gram
same,Liver weight,[1]; oral dose 2.5 µg/kg bw,5.02 ± 0.26 % of bw
same,Spleen weight,[1]; oral dose 2.5 µg/kg bw,0.31 ± 0.03 % of bw
same,Thymus weight,[1]; oral dose 2.5 µg/kg bw,0.29 ± 0.04 % of bw
same,% lipid / g liver,[1]; oral dose 2.5 µg/kg bw,6.0%
same,Body weight,[1]; oral dose 10 µg/kg bw,18.9 ± 1.2 gram
same,Liver weight,[1]; oral dose 10 µg/kg bw,5.32 ± 0.43 % of bw
same,Spleen weight,[1]; oral dose 10 µg/kg bw,0.32 ± 0.04 % of bw
same,Thymus weight,[1]; oral dose 10 µg/kg bw,0.23 ± 0.06 % of bw
same,% lipid / g liver,[1]; oral dose 10 µg/kg bw,6.2%
same,Body weight,[1]; oral dose 25 µg/kg bw,19.4 ± 1.5 gram
same,Liver weight,[1]; oral dose 25 µg/kg bw,5.26 ± 0.27 % of bw
same,Spleen weight,[1]; oral dose 25 µg/kg bw,0.32 ± 0.04 % of bw
same,Thymus weight,[1]; oral dose 25 µg/kg bw,0.26 ± 0.05 % of bw
same,Body weight,[1]; oral dose 100 µg/kg bw,18.8 ± 1.1 gram
same,Liver weight,[1]; oral dose 100 µg/kg bw,5.83 ± 0.50 % of bw
same,Spleen weight,[1]; oral dose 100 µg/kg bw,0.33 ± 0.04 % of bw
same,Thymus weight,[1]; oral dose 100 µg/kg bw,0.24 ± 0.05 % of bw
same,Dose with significant increase in liver weight vs vehicle controls,[1]; single oral dose,≥ 100 µg/kg BW
same,WHO-TEF,[2],1
"Clc1cc2c(cc1Cl)Oc1cc(Cl)c(Cl)cc1O2 [TCDD, 2,3,7,8-tetrachlorodibenzodioxin, reference compound]",Body weight,[1]; oral dose 0.5 µg/kg bw,19.3 ± 0.8 gram
same,Liver weight,[1]; oral dose 0.5 µg/kg bw,5.08 ± 0.27 % of bw
same,Spleen weight,[1]; oral dose 0.5 µg/kg bw,0.34 ± 0.05 % of bw
same,Thymus weight,[1]; oral dose 0.5 µg/kg bw,0.28 ± 0.06 % of bw
same,% lipid / g liver,[1]; oral dose 0.5 µg/kg bw,5.3%
same,Body weight,[1]; oral dose 2.5 µg/kg bw,19.2 ± 1.3 gram
same,Liver weight,[1]; oral dose 2.5 µg/kg bw,5.37 ± 0.20 % of bw
same,Spleen weight,[1]; oral dose 2.5 µg/kg bw,0.32 ± 0.05 % of bw
same,Thymus weight,[1]; oral dose 2.5 µg/kg bw,0.23 ± 0.05 % of bw
same,% lipid / g liver,[1]; oral dose 2.5 µg/kg bw,7.2%
same,Body weight,[1]; oral dose 10 µg/kg bw,18.8 ± 1.1 gram
same,Liver weight,[1]; oral dose 10 µg/kg bw,5.49 ± 0.37 % of bw
same,Spleen weight,[1]; oral dose 10 µg/kg bw,0.30 ± 0.04 % of bw
same,Thymus weight,[1]; oral dose 10 µg/kg bw,0.18 ± 0.06 % of bw
same,% lipid / g liver,[1]; oral dose 10 µg/kg bw,7.4%
same,Body weight,[1]; oral dose 25 µg/kg bw,19.6 ± 0.8 gram
same,Liver weight,[1]; oral dose 25 µg/kg bw,5.86 ± 0.22 % of bw
same,Spleen weight,[1]; oral dose 25 µg/kg bw,0.34 ± 0.02 % of bw
same,Thymus weight,[1]; oral dose 25 µg/kg bw,0.23 ± 0.02 % of bw
same,Body weight,[1]; oral dose 100 µg/kg bw,19.4 ± 0.6 gram
same,Liver weight,[1]; oral dose 100 µg/kg bw,6.09 ± 0.44 % of bw
same,Spleen weight,[1]; oral dose 100 µg/kg bw,0.34 ± 0.02 % of bw
same,Thymus weight,[1]; oral dose 100 µg/kg bw,0.19 ± 0.04 % of bw
same,Dose with significant increase in liver weight vs vehicle controls,[1]; single oral dose,≥ 10 µg/kg BW
same,Dose with statistically significant decrease in relative thymus weight vs vehicle controls,[1]; single oral dose,≥ 2.5 μg/kg BW
same,WHO-TEF,[2],1
